Values joined by “and” are separate entries in the source; they are usually repeats but may differ in a detail not shown here. Equal entries are not always repeated. Where two headings read alike, the source gives them in different places.
Biological target: T1, Human TLR7 (Homo sapiens, UniProt Q9NYK1)
T1 construct: stably and individually express human TLR4, TLR7 or TLR9 full-length ORF cDNAs; host or cells: HEK-293 (ATCC) with ELAM-1 NF-kappaB luciferase reporter
T1 sequence (Q9NYK1 27-1049): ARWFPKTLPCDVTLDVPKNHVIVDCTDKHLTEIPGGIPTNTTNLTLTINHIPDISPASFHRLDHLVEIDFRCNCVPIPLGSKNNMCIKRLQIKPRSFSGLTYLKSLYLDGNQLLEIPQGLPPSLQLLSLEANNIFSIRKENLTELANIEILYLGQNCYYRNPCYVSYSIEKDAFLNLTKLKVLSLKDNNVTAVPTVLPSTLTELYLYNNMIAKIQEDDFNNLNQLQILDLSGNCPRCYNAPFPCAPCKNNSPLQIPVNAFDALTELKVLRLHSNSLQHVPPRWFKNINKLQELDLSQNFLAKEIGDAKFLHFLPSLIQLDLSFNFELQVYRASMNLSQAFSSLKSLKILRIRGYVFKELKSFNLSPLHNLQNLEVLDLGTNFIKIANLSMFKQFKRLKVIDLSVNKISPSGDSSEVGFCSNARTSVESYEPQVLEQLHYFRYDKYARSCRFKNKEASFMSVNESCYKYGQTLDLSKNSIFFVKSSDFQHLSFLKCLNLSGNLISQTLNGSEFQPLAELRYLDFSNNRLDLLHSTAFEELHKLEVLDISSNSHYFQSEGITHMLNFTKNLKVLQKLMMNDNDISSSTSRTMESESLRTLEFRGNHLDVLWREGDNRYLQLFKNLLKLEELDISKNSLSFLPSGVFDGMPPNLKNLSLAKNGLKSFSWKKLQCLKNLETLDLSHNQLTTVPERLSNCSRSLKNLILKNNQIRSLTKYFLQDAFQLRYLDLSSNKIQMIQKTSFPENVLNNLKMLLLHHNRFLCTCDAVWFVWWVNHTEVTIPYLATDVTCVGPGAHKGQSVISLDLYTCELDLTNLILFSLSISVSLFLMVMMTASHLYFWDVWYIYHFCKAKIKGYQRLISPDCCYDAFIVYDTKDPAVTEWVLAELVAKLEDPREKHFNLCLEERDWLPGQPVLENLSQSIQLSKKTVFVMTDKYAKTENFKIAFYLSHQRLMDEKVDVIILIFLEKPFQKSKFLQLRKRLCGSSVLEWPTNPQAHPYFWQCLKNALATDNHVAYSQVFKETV
Test: HEK-293 human TLR7 NF-kappaB luciferase reporter assay (CL097)
Assay type: cell-based
Protocol: Effects on mouse TLR7 were also compared. Cells were stimulated overnight with TLR7/8 agonist CL097 at pre-determined ED70-80: 3 ug/ml for HEK-hTLR7, 1.5 ug/ml for HEK-mTLR7 and 12 ug/ml for HEK-hTLR8, before reading luminescence intensity. Three tests were performed and IC50 value was determined using Graphpad Prism 6 nonlinear regression curve fit.
HEK-293 cells (ATCC) were engineered to stably express a NF-kappaB transcription factor inducible E-selectin (ELAM-1) luciferase reporter derived from the plasmid pGL3 (Promega) containing base pairs −2241 bp to −254 bp from the promoter of the human E-selectin gene (Accession No. NM_000450). These cells were then subsequently engineered to stably and individually express human TLR4, TLR7 or TLR9 full-length ORF cDNAs. Human TLR4 cDNA (Accession No. NM_138554) was cloned into pcDNA 3.0 expression vector (Invitrogen). TLR4 transfected cells were also engineered to express human MD-2 co-receptor [MD-2 cDNA (Accession No. NM_015364) was cloned into the pEF-BOS vector] and were supplemented with 10 nM soluble CD14 (R&D Systems) in the media to optimize LPS responsiveness. Human TLR9 cDNA (Accession No. NM_017442) was cloned into the pBluescript II KS vector (Agilent). Human TLR7 cDNA (Accession No. NM_016562) was obtained from OriGene. HEK-293 cells stably expressing human TLR8 (Accession No. NM_138636) or mouse TLR7 (Accession No. NM_133211) were purchased from InvivoGen and were then stably transfected with pNiFty2(NF-kappaB)-luciferase reporter plasmid (InvivoGen). Each cell type was plated in Dulbecco's modified Eagle's medium (DMEM) containing 10% fetal bovine serum (FBS) at a density of 2.22×10^5 cells/ml into a 384-well plate and incubated for 2 days at 37° C., 5% CO2. Varying concentrations of antagonist compounds were then added. Cells were then incubated for another 30 minutes before adding the appropriate TLR agonist as follows (final concentrations indicated): lipopolysaccharide (LPS; Sigma) at 10 ng/ml for TLR4, CL097 (InvivoGen) at 3 ug/ml for human TLR7 and TLR8 and mouse TLR7, and CvG-2006-2A [sequence: […] (SEQ ID NO: 1) with phosphorothioate backbone, synthesized by Sigma-Aldrich] at 0.6 uM for TLR9.

SMILES	IC50 (HEK-hTLR7, CL097 3 ug/ml, average of three tests, read-out: IC50 average)	IC50 (HEK-hTLR7, CL097 3 ug/ml, individual tests 1-3, read-out: IC50)	IC50 (IC50, HEK-293, ligand CL097, analyte NFkB-luciferase (Table 1))	IC50 (IC50, HEK-hTLR7, CL097 3 ug/ml, individual tests 1-3)	IC50 (IC50 average, HEK-hTLR7, CL097 3 ug/ml, average of three tests)
CCN(CCO)CCCC(C)Nc1ccnc2cc(Cl)ccc12 (centres unmarked) [HCQ, hydroxychloroquine, reference compound]	9100 nM	6800 nM and 14500 nM and 5950 nM			
C[C@@H]1CN(c2ccc(C#N)c3ncccc23)C[C@H](C(=O)N[C@H]2CNC[C@H]2F)O1.Cl [ER-899742, (2R,6R)-4-(8-cyanoquinolin-5-yl)-N-[(3S,4R)-4-fluoropyrrolidin-3-yl]-6-methylmorpholine-2-carboxamide hydrochloride]			6 nM	23 nM and 26 nM	24 nM
